Measurements reported in the NIST ThermoML archive (doi:10.1021/je900542y).
Values joined by “and” are separate entries in the source; they are usually repeats but may differ in a detail not shown here. Identical values can stand only once. Numbers after ± are expanded uncertainties.

Assays:
[1] = 298.15 K; 101 kPa; Liquid
[2] = mn = molality of the nth substance listed, in mol/kg; conditions: 298.15 K, 101 kPa, Liquid

Compound `CC(C)=O` [acetone] has a mass density [1] of 783.81 ± 0.5 kg/m3.

Work on `CC(C)=O` [acetone] + CC[N+](CC)(CC)CC.[I-] yielded a mass density ([2]; m2 = 0) of 783.81 ± 0.5 kg/m3.

With `CC#N` [acetonitrile] the mass density [1] was 776.01 ± 0.6 kg/m3 and 776.02 ± 0.59 kg/m3.

In the case of `CC#N` [acetonitrile] + CC[N+](CC)(CC)CC.[I-], the mass density ([2]; m2 = 0) is reported as 776.01 ± 0.6 kg/m3.

`CO` [methanol] gave a mass density [1] of 786.38 ± 0.49 kg/m3.

In the case of `CO` [methanol] + CC[N+](CC)(CC)CC.[I-], the mass density ([2]; m2 = 0) is reported as 786.38 ± 0.49 kg/m3.

Compound `O=[N+]([O-])c1ccccc1` [nitrobenzene] has a mass density [1] of 1198.91 ± 0.72 kg/m3.

`O=[N+]([O-])c1ccccc1` [nitrobenzene] + CC[N+](CC)(CC)CC.[I-] showed a mass density ([2]; m2 = 0) of 1198.91 ± 0.72 kg/m3.

`CC[N+](CC)(CC)CC.[I-]` [tetraethylammonium iodide] + CC#N showed a mass density ([2]; m1 = 0.0001) of 776.01 ± 0.6 kg/m3, a mass density ([2]; m1 = 0.0002) of 776.02 ± 0.59 kg/m3 and a mass density ([2]; m1 = 0.00354) of 776.16 ± 0.59 kg/m3. The mass density ([2]; m1 = 0.003541) was 776.16 ± 0.59 kg/m3, the mass density ([2]; m1 = 0.007081) was 776.32 ± 0.59 kg/m3 and the mass density ([2]; m1 = 0.007082) was 776.32 ± 0.59 kg/m3. It also gave a mass density ([2]; m1 = 0.01062) of 776.47 ± 0.59 kg/m3, a mass density ([2]; m1 = 0.01064) of 776.46 ± 0.59 kg/m3 and a mass density ([2]; m1 = 0.01416) of 776.63 ± 0.59 kg/m3. The mass density ([2]; m1 = 0.01417) was 776.61 ± 0.59 kg/m3, the mass density ([2]; m1 = 0.0176) was 776.77 ± 0.59 kg/m3 and 776.78 ± 0.59 kg/m3 and the mass density ([2]; m1 = 0.02124) was 776.93 ± 0.59 kg/m3. For the same compound, the mass density ([2]; m1 = 0.02832) was 777.24 ± 0.59 kg/m3.

With `CC[N+](CC)(CC)CC.[I-]` [tetraethylammonium iodide] + CC(C)=O the mass density ([2]; m1 = 0.0001) was 783.81 ± 0.5 kg/m3, the mass density ([2]; m1 = 0.0002) was 783.81 ± 0.5 kg/m3 and the mass density ([2]; m1 = 0.00536) was 784.1 ± 0.5 kg/m3. For the same compound, the mass density ([2]; m1 = 0.005361) was 784.11 ± 0.5 kg/m3, the mass density ([2]; m1 = 0.007105) was 784.2 ± 0.49 kg/m3 and the mass density ([2]; m1 = 0.007106) was 784.21 ± 0.49 kg/m3. For the same compound, the mass density ([2]; m1 = 0.007107) was 784.2 ± 0.49 kg/m3, the mass density ([2]; m1 = 0.008909) was 784.3 ± 0.5 kg/m3 and the mass density ([2]; m1 = 0.00891) was 784.3 ± 0.5 kg/m3. For the same compound, the mass density ([2]; m1 = 0.01242) was 784.5 ± 0.49 kg/m3, the mass density ([2]; m1 = 0.0142) was 784.6 ± 0.49 kg/m3 and the mass density ([2]; m1 = 0.0177) was 784.81 ± 0.49 kg/m3. It also gave a mass density ([2]; m1 = 0.01771) of 784.81 ± 0.49 kg/m3, a mass density ([2]; m1 = 0.02114) of 784.99 ± 0.49 kg/m3 and a mass density ([2]; m1 = 0.02115) of 785 ± 0.49 kg/m3.

With `CC[N+](CC)(CC)CC.[I-]` [tetraethylammonium iodide] + CO the mass density ([2]; m1 = 0.0001) was 786.38 ± 0.49 kg/m3, the mass density ([2]; m1 = 0.0002) was 786.38 ± 0.49 kg/m3 and the mass density ([2]; m1 = 0.00354) was 786.54 ± 0.49 kg/m3. The mass density ([2]; m1 = 0.003541) was 786.54 ± 0.49 kg/m3, the mass density ([2]; m1 = 0.003542) was 786.54 ± 0.49 kg/m3 and the mass density ([2]; m1 = 0.007079) was 786.69 ± 0.49 kg/m3. The mass density ([2]; m1 = 0.00708) was 786.69 ± 0.49 kg/m3, the mass density ([2]; m1 = 0.007081) was 786.69 ± 0.49 kg/m3 and the mass density ([2]; m1 = 0.01062) was 786.85 ± 0.49 kg/m3. It also gave a mass density ([2]; m1 = 0.01063) of 786.85 ± 0.49 kg/m3, a mass density ([2]; m1 = 0.01416) of 787 ± 0.49 kg/m3 and a mass density ([2]; m1 = 0.01417) of 787 ± 0.49 kg/m3. The mass density ([2]; m1 = 0.0176) was 787.17 ± 0.49 kg/m3 and 787.18 ± 0.49 kg/m3, the mass density ([2]; m1 = 0.02124) was 787.31 ± 0.49 kg/m3 and the mass density ([2]; m1 = 0.02832) was 787.63 ± 0.49 kg/m3 and 787.62 ± 0.49 kg/m3.

`CC[N+](CC)(CC)CC.[I-]` [tetraethylammonium iodide] + O=[N+]([O-])c1ccccc1 gave a mass density ([2]; m1 = 0.0001) of 1198.91 ± 0.72 kg/m3, a mass density ([2]; m1 = 0.0002) of 1198.91 ± 0.72 kg/m3 and a mass density ([2]; m1 = 0.003538) of 1198.97 ± 0.72 kg/m3. The mass density ([2]; m1 = 0.007075) was 1199.04 ± 0.72 kg/m3, the mass density ([2]; m1 = 0.0106) was 1199.1 ± 0.72 kg/m3 and the mass density ([2]; m1 = 0.01415) was 1199.17 ± 0.72 kg/m3. For the same compound, the mass density ([2]; m1 = 0.01416) was 1199.17 ± 0.72 kg/m3, the mass density ([2]; m1 = 0.0177) was 1199.23 ± 0.72 kg/m3 and the mass density ([2]; m1 = 0.02119) was 1199.29 ± 0.72 kg/m3. For the same compound, the mass density ([2]; m1 = 0.02469) was 1199.36 ± 0.72 kg/m3 and 1199.35 ± 0.72 kg/m3.
